2 compounds from ChEMBL document CHEMBL3774310, “Discovery of antitumor anthra[2,3-b]furan-3-carboxamides: Optimization of synthesis and evaluation of antitumor properties” (Eur J Med Chem, 2016) can be followed below.

One may read the IC50 as the point on the concentration scale where inhibition reaches its midpoint. As usually defined, the Kd is the equilibrium constant for the complex coming apart.

Active and inactive are the calls of the source. The rule behind the calls is not given here. Some results are limits rather than exact numbers.

The test system of data set [1] is P388. Put plainly: Antitumor activity against mouse P388 cells transplanted in DBA2/BDF1 mouse assessed as mean life span at 20 mg/kg, ip dosed daily for 5 days relative to control. The format is functional.
The test system of data set [2] is P388. Nature of the data set: Antitumor activity against mouse P388 cells transplanted in DBA2/BDF1 mouse assessed as mean life span at 5 mg/kg, ip dosed daily for 5 days (reference value: 9.6 +/- 0.5 day). The format is functional.
Data set [3] concerns HCT-116. Nature of the data set: Induction of apoptosis in p53 knockout human HCT116 cells assessed as late apoptotic cells at 1 uM after 48 hrs by Annexin V-FITC/propidium iodide staining based assay (reference value: 2 +/- 1%). In kind it is functional.
Data set [4] concerns HCT-116. Nature of the data set: Induction of apoptosis in human HCT116 cells assessed as early apoptotic cells at 1 uM after 24 hrs by Annexin V-FITC/propidium iodide staining based assay (reference value: 2 +/- 1%). The format is functional.
For data set [5], the system named is Mus musculus. Nature of the data set: Toxicity in DBA2/BDF1 mouse transplanted with mouse P388 cells assessed as reduction in spleen mass at 50 mg/kg, ip dosed daily for 5 days relative to control. In kind it is organism-based. Also noted: scale not given: the % may be the effect or the level left. The following applies: in vivo, 120 h.
The test system of the next data set is PBL. Put plainly: Cytotoxicity against human PBL assessed as reduction in cell viability after 72 hrs by MTT assay. The format is cell-based. (Tetrazolium dyes change colour on reduction, which living cells bring about.)
The test system of data set [6] is P388. Put plainly: Antitumor activity against mouse P388 cells transplanted in DBA2/BDF1 mouse assessed as mean life span at 10 mg/kg, ip dosed daily for 5 days relative to control. The format is functional.
Data set [7] can be described thus: Toxicity in ip dosed DBA2/BDF1 mouse transplanted with mouse P388 cells dosed daily for 5 days. In kind it is organism-based. Conditions: in vivo.
Data set [8] deals with HCT-116. Nature of the data set: Induction of apoptosis in human HCT116 cells assessed as viable cells at 1 uM after 48 hrs by Annexin V-FITC/propidium iodide staining based assay (reference value: 95 +/- 2%). In kind it is functional.
For data set [9], the system named is P388. Put plainly: Antitumor activity against mouse P388 cells transplanted in DBA2/BDF1 mouse assessed as mean life span at 10 mg/kg, ip dosed daily for 5 days (reference value: 9.6 +/- 0.5 day). In kind it is functional.
For data set [10], the system named is P388. Put plainly: Antitumor activity against mouse P388 cells transplanted in DBA2/BDF1 mouse assessed as mean life span at 5 mg/kg, ip dosed daily for 5 days relative to control. In kind it is functional.
Data set [11] deals with Mus musculus. Put plainly: Toxicity in DBA2/BDF1 mouse transplanted with mouse P388 cells at 5 to 40 mg/kg, ip dosed daily for 5 days. The format is organism-based. The following applies: in vivo, 120 h.
Data set [12] has as its target T1, DNA topoisomerase 1 (Homo sapiens) (UniProt P11387).
T1 sequence (whole entry): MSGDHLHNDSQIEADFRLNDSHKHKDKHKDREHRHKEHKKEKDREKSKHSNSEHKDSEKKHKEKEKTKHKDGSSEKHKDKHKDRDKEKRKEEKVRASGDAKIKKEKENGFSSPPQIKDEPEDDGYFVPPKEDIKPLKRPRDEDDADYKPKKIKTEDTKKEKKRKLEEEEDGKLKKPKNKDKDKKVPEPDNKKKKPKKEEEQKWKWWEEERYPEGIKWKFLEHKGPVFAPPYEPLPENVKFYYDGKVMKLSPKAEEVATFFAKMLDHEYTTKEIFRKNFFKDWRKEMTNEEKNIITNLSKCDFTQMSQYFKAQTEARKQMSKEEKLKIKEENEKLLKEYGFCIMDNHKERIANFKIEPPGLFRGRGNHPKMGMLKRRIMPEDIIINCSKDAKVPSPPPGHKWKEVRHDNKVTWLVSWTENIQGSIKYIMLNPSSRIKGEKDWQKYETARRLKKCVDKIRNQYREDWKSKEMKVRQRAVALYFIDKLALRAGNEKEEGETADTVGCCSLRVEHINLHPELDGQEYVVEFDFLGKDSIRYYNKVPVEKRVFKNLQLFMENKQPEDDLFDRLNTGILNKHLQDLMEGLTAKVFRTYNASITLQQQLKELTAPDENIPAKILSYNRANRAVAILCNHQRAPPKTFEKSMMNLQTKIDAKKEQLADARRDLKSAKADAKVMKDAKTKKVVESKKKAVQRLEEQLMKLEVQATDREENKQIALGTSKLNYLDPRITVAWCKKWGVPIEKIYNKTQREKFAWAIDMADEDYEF
Nature of the data set: Inhibition of topoisomerase 1 (unknown origin) assessed as attenuation of enzyme-mediated relaxation of supercoiled pBR322 DNA up to 1 uM after 30 mins by agarose gel electrophoresis.

Data set [13] has as its target Dual serine/threonine and tyrosine protein kinase (Homo sapiens, UniProt Q6XUX3). Put plainly: Inhibition of human RIPK5 by flashplate based radiometric 33pan-quinase assay.
Data set [14] concerns the target Serine/threonine-protein kinase tousled-like 1 (Homo sapiens, UniProt Q9UKI8). Nature of the data set: Inhibition of human N-terminal FLAG, C-terminal HIS8-tagged TLK1 expressed in sf9 cells by flashplate based radiometric 33pan-quinase assay.
Data set [15] has as its target T1, DNA topoisomerase 1 (Homo sapiens). Put plainly: Poisoning activity at topoisomerase 1 (unknown origin) using 3'-[32P]dGTP labelled 117bp oligonucleotide assessed as induction of DNA cleavage incubated for 20 mins by SDS-PAGE analysis.
Data set [16] relates to P388. Nature of the data set: Antitumor activity against mouse P388 cells transplanted in DBA2/BDF1 mouse assessed as mean life span at 30 mg/kg, ip dosed daily for 5 days (reference value: 9.6 to 9.7 day). In kind it is functional.
In data set [17] the target is Serine/threonine-protein kinase pim-3 (Homo sapiens, UniProt Q86V86). Nature of the data set: Inhibition of full length human N-terminal GST-HIS6-tagged PIM3 expressed in sf9 cells by flashplate based radiometric 33pan-quinase assay.
For data set [18], the system named is HCT-116. Put plainly: Induction of apoptosis in p53 knockout human HCT116 cells assessed as viable cells at 1 uM after 48 hrs by Annexin V-FITC/propidium iodide staining based assay (reference value: 93 +/- 3%). The format is functional.
Data set [19] has as its system Mus musculus. Nature of the data set: Toxicity in mouse P388 cells transplanted DBA2/BDF1 mouse assessed as mouse mortality at 50 mg/kg, ip dosed daily for 5 days. The format is organism-based. The following applies: in vivo, 120 h.
The target in a further data set is Aurora kinase B (Homo sapiens, UniProt Q96GD4). Put plainly: Inhibition of full length human N-terminal GST-HIS6-tagged Aurora B expressed in sf9 cells by flashplate based radiometric 33pan-quinase assay.
Sequence of Aurora kinase B (Q96GD4 whole entry): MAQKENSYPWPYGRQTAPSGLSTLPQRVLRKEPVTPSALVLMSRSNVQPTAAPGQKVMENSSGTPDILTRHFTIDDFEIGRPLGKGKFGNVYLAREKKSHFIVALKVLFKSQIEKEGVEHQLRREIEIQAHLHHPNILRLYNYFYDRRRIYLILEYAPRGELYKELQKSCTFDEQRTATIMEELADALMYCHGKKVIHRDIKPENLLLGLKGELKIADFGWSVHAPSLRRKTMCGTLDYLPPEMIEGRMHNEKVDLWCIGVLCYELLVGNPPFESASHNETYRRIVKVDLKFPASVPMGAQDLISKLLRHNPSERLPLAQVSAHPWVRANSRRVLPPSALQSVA
Data set [20] is described as follows: Cell cycle arrest in p53 knockout human HCT116 cells assessed as accumulation in sub G1 phase at 1 uM after 24 to 48 hrs relative to control. Conditions: HCT-116. The format is functional, cell-based.
Data set [21] concerns the target Mitogen-activated protein kinase kinase kinase 7 (Homo sapiens, UniProt O43318). Put plainly: Inhibition of human MAP3K7 by flashplate based radiometric 33pan-quinase assay.
Data set [22] deals with P388. Put plainly: Antitumor activity against mouse P388 cells transplanted in DBA2/BDF1 mouse assessed as mean life span at 40 mg/kg, ip dosed daily for 5 days (reference value: 9.6 +/- 0.5 day). In kind it is functional.
Data set [23] has as its system HCT-116. Put plainly: Induction of apoptosis in human HCT116 cells assessed as late apoptotic cells at 1 uM after 48 hrs by Annexin V-FITC/propidium iodide staining based assay (reference value: 1 +/- 1%). The format is functional.
Data set [24] concerns Calf thymus DNA. Conditions: Bos taurus.
Description: Binding affinity to calf thymus DNA assessed as binding constant by Scatchard plot analysis
The subject of data set [25] is Calf thymus DNA. Put plainly: Binding affinity to calf thymus DNA assessed as dissociation constant by Scatchard plot analysis. The format is nucleic-acid assay, Bos taurus.
Data set [26] has as its system P388. Put plainly: Antitumor activity against mouse P388 cells transplanted in DBA2/BDF1 mouse assessed as mean life span at 30 mg/kg, ip dosed daily for 5 days (reference value: 9.7 +/- 1.1 day). The format is functional.
Setting [27] is: HCT-116, 48 h, read-out: Activity.

Sequence of Serine/threonine-protein kinase tousled-like 1 (Q9UKI8 whole entry): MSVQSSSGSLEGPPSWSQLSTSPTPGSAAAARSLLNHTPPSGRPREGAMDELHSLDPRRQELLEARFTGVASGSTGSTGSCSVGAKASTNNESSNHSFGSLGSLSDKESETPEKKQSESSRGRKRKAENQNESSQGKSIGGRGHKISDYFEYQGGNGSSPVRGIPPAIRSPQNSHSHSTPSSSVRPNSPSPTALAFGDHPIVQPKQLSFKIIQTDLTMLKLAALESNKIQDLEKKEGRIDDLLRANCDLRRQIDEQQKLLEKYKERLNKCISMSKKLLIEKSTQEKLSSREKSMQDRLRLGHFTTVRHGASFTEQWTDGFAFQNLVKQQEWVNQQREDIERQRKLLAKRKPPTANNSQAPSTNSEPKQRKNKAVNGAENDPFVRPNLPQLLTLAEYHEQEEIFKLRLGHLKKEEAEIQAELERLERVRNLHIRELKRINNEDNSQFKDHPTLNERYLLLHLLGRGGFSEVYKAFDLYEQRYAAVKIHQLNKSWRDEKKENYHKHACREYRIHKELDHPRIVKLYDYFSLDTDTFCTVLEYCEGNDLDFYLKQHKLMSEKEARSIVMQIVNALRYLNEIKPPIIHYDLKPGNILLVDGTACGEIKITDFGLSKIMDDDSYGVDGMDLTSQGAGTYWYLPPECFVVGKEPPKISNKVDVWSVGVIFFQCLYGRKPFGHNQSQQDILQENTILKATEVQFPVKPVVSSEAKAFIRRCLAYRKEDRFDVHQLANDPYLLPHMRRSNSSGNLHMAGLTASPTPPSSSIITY
Sequence of Dual serine/threonine and tyrosine protein kinase (Q6XUX3 whole entry): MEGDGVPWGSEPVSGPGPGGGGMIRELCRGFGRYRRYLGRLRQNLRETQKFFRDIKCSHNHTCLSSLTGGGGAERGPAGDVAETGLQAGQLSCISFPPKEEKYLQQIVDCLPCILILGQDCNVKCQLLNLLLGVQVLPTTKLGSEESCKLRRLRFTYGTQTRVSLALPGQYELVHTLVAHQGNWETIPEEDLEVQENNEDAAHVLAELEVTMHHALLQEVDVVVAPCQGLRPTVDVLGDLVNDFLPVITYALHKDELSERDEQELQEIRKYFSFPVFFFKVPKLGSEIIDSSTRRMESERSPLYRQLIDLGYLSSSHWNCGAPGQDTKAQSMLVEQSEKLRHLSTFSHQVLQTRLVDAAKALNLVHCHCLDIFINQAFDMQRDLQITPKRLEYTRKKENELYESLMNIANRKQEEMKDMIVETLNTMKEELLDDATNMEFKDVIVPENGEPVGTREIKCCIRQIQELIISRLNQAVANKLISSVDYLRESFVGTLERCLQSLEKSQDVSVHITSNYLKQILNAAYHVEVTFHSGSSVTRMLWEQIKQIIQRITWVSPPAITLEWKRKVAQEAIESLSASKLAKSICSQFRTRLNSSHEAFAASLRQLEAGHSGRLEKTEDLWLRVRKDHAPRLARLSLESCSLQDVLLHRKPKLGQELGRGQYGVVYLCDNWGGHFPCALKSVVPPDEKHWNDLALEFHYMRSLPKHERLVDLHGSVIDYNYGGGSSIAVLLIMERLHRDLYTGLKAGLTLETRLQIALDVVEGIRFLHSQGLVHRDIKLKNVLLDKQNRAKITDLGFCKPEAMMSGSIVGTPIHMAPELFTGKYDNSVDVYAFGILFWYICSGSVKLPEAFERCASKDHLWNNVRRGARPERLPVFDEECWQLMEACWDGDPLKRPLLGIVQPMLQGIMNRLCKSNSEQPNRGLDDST
Sequence of Mitogen-activated protein kinase kinase kinase 7 (O43318 whole entry): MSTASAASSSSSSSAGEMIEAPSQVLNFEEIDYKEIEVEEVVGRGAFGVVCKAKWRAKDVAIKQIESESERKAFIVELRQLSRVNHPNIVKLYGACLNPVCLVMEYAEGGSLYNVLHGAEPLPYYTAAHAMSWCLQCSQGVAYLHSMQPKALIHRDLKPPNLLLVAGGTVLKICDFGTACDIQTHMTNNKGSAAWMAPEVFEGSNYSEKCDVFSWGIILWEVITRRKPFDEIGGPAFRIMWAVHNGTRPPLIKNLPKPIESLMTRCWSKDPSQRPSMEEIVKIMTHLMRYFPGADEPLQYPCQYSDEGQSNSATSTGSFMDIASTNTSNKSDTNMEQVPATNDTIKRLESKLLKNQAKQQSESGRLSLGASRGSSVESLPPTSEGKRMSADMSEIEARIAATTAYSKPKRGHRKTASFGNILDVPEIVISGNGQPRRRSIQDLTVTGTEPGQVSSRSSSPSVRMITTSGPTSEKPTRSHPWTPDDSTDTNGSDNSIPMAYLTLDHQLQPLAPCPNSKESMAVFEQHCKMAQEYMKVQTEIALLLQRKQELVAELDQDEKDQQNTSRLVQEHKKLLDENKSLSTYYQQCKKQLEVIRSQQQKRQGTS

Take `CS(=O)(=O)O.Cc1oc2c(O)c3c(c(O)c2c1C(=O)N1CC[C@H](N)C1)C(=O)c1ccccc1C3=O`: the Activity in the data set with P388 [1] was 222%; with P388 [2], 13.4 days; in the data set on HCT-116 [3], 14%; with HCT-116 [4], 20%; in the data set with Mus musculus [5] it was 40%; in the data set on PBL it was “Non-toxic”. For the same compound, the Activity in the data set with P388 [6] was 170%; in the data set with P388 [9] it was 16.3 days; in the data set on P388 [10], 140%; in the data set with Mus musculus [11], “Non-toxic”; in the data set with P388 [16], 20.8 days; in the data set with Mus musculus [19] it was “Toxic”. Moreover, the Activity was > 70% in [20], 25.2 days with P388 [22] and 13% in the data set on HCT-116 [23]. This compound came in with an MTD at 120 h in [7] of 30 mg/kg. In addition, the viability at 1 µM in the data set with HCT-116 [8] (setting [27]) is 12%; in the data set on HCT-116 [18] (setting [27]), 7%. The outcome in [12] and in [15] was inactive. Besides, the half-maximal inhibitory concentration (IC50) (in [13]; in data set [14]; in [17]; against Aurora kinase B; in data set [21]) was < 5 µM throughout.
Take `CS(=O)(=O)O.Cc1oc2c(O)c3c(c(O)c2c1C(=O)N1CC[C@@H](N)C1)C(=O)c1ccccc1C3=O`: the outcome with HCT-116 [3], in the data set on HCT-116 [4], with HCT-116 [8], with HCT-116 [18] and in the data set with HCT-116 [23] was Active. In addition, the Activity result in the data set with PBL is “Non-toxic”; in data set [20] it was > 70%; with P388 [26], 11.8 days. In data set [7], this compound registered an MTD at 120 h of 50 mg/kg. The compound also had a Ka in the data set with Calf thymus DNA [24] of 5 ×10⁵ /M. The outcome in data set [12] and in [15] was inactive. Besides, the equilibrium dissociation constant (Kd) with Calf thymus DNA [25] was determined as 2 µM.
